{
  "source": "patent US10160747B2",
  "about": "“Compounds and methods for kinase modulation, and indications therefor” (Plexxikon Inc., priority 2016, dated 2018)",
  "data": [
    {"target": "T1, c-KIT (Homo sapiens, UniProt P10721)", "T1 construct": "purchased Millipore 14-559K", "T1 sequence (P10721 26-976)": "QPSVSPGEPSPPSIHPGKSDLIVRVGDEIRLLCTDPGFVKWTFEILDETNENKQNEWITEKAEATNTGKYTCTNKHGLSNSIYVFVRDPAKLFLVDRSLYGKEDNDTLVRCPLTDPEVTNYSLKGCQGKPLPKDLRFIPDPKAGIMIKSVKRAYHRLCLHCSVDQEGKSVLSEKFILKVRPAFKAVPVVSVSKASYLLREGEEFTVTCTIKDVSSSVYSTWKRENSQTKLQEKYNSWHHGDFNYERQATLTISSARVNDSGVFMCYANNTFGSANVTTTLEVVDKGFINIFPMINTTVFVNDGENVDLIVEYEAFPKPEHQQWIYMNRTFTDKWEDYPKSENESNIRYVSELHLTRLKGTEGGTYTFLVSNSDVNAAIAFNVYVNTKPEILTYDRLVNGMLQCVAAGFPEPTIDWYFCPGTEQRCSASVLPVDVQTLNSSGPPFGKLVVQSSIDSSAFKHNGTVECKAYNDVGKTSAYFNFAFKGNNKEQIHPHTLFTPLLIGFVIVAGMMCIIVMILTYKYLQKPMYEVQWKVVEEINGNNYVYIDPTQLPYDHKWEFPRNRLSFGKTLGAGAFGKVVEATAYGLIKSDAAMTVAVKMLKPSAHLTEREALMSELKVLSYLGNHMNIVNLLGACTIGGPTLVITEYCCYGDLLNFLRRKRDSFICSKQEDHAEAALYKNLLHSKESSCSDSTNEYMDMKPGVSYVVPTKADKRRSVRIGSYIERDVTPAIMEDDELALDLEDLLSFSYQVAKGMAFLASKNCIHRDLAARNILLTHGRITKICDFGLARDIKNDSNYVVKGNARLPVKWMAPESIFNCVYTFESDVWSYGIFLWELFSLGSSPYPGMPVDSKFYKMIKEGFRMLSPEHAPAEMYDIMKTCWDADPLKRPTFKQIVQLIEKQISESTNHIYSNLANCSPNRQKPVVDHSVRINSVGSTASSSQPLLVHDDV", "assay": "c-KIT recombinant enzyme kinase assay (AlphaScreen)", "assay_type": "biochemical", "conditions": "100 ATP, 8 pt", "experimental": "In order to determine the effect of compounds on FLT3 catalytic activity, kinase assays using recombinant enzymes and AlphaScreen® technology have been established. The catalytic activity of c-kit activity was also measured to determine selectivity of the compounds. When the kinases are catalytically active, they phosphorylate a biotinylated peptide substrate on tyrosine residues. Using AlphaScreen® technology, the ability of the compounds to affect the catalytic activity of the kinases can be measured quantitatively. The peptide substrate is immobilized by the AlphaScreen® Streptavidin Donor beads and, upon phosphorylation by a tyrosine kinase, can bind to AlphaScreen® Anti-Phosphotyrosine (PY20) Acceptor beads. Upon excitation of these beads with laser light at 680 nm, singlet oxygen is produced. This singlet oxygen is rapidly quenched, unless the AlphaScreen® Anti-Phosphotyrosine (PY20) Acceptor beads are in close proximity, in which case a proximity signal can be measured at 580 nm. In the presence of catalytic activity, there is a very strong proximity signal. Selective kinase inhibitors affect a decrease in this proximity signal through a decrease in tyrosine phosphorylation of the peptide substrate.\nThe assay was performed as summarized below.\nPoly (Glu4-Tyr) Peptide, biotin conjugate [Biotin-GG(EEEEY)10EE] (SEQ ID NO: 4)\nFinal concentration=30 nM\nAdenosine Triphosphate (ATP)\nFinal concentration for IC50 determination=10 μM (FLT3-D835Y or FLT3-ITD) or 100 μM (c-KIT)\nAlphaScreen® Phosphotyrosine (PY20) Assay Kit\nFinal concentration=10 μg/mL\nDilute compounds in DMSO to 20× final concentration.\nAdd 1 μL of compound to each well of 384 well reaction plate (Perkin Elmer #6005359).\nMix enzyme and Poly (Glu4-Tyr) Peptide substrate at 1.33× final concentration in assay buffer.\nMix ATP at 5× final concentration in assay buffer.\nAdd 15 μL enzyme/substrate mixture to the reaction plate.\nAdd 4 μL of ATP to the reaction plate.\nMix Streptavidin Donor beads at 6× final concentration in Stop/Detection buffer.\nAdd 5 μL Streptavidin Donor beads to the reaction plate. Centrifuge 1 minute, shake to mix, and incubate at room temperature for 20 minutes.\nMix Anti-Phosphotyrosine (PY20) Acceptor beads at 6× final concentration in Stop/Detection buffer.\nAdd 5 μL Anti-Phosphotyrosine (PY20) beads to the reaction plate.\nCentrifuge 1 minute, shake to mix, and incubate at room temperature for 60 minutes.\nRead plate on Wallac EnVision™ 2103 Multilabel Reader.", "units": {"IC50": "µM"}, "values": [
      {"molecule": "O=C(Cc1ccc(-c2cnc3[nH]c(-c4ccccc4)cc3c2)cn1)Nc1ccnc(C(F)(F)F)c1", "note": "[Compound P-0005, 2-[5-(2-phenyl-1H-pyrrolo[2,3-b]pyridin-5-yl)-2-pyridyl]-N-[2-(trifluoromethyl)-4-pyridyl]acetamide]", "IC50": "0.0001 to 10"},
      {"molecule": "Cc1ncc(NC(=O)Cc2ccc(-c3cnc(Nc4cnn(C)c4)nc3)cc2F)cc1C(F)(F)F", "note": "[Compound P-0091, 2-[2-fluoro-4-[2-[(1-methylpyrazol-4-yl)amino]pyrimidin-5-yl]phenyl]-N-[6-methyl-5-(trifluoromethyl)-3-pyridyl]acetamide]", "IC50": "0.0001 to 10"},
      {"molecule": "Cn1cc(Nc2ncc(-c3ccc(CC(=O)Nc4cnc(Cl)c(C(F)(F)F)c4)c(F)c3)cn2)cn1", "note": "[Compound P-0092, N-[6-chloro-5-(trifluoromethyl)-3-pyridyl]-2-[2-fluoro-4-[2-[(1-methylpyrazol-4-yl)amino]pyrimidin-5-yl]phenyl]acetamide]", "IC50": "0.0001 to 10"},
      {"molecule": "CC(C)c1cc(NC(=O)Cc2ccc(-c3cnc(Nc4cnn(C)c4)nc3)cc2F)ccn1", "note": "[Compound P-0094, 2-[2-fluoro-4-[2-[(1-methylpyrazol-4-yl)amino]pyrimidin-5-yl]phenyl]-N-(2-isopropyl-4-pyridyl)acetamide]", "IC50": "0.0001 to 10"},
      {"molecule": "Cn1cc(Nc2ncc(-c3ccc(CC(=O)Nc4ccc(C(F)(F)F)nc4)cc3)cn2)cn1", "note": "[Compound P-0095, 2-[4-[2-[(1-methylpyrazol-4-yl)amino]pyrimidin-5-yl]phenyl]-N-[6-(trifluoromethyl)-3-pyridyl]acetamide]", "IC50": "0.0001 to 10"},
      {"molecule": "Cn1cnc(Nc2ncc(-c3ccc(CC(=O)Nc4cc(C(F)(F)F)ccn4)c(F)c3)cn2)c1", "note": "[Compound P-0096, 2-[2-fluoro-4-[2-[(1-methylimidazol-4-yl)amino]pyrimidin-5-yl]phenyl]-N-[4-(trifluoromethyl)-2-pyridyl]acetamide]", "IC50": "0.0001 to 10"},
      {"molecule": "Cn1cc(Nc2ncc(-c3ccc(CC(=O)Nc4ccnc(C5CC5)c4)cc3)cn2)cn1", "note": "[Compound P-0097, N-(2-cyclopropyl-4-pyridyl)-2-[4-[2-[(1-methylpyrazol-4-yl)amino]pyrimidin-5-yl]phenyl]acetamide]", "IC50": "0.0001 to 10"},
      {"molecule": "Cn1cc(Nc2ncc(-c3ccc(CC(=O)Nc4ccnc(C5CC5)c4)c(F)c3)cn2)cn1", "note": "[Compound P-0098, N-(2-cyclopropyl-4-pyridyl)-2-[2-fluoro-4-[2-[(1-methylpyrazol-4-yl)amino]pyrimidin-5-yl]phenyl]acetamide]", "IC50": "0.0001 to 10"},
      {"molecule": "Cc1ncc(NC(=O)Cc2ccc(-c3cnc(Nc4cn(C)cn4)nc3)cc2F)cc1C(F)(F)F", "note": "[Compound P-0099, 2-[2-fluoro-4-[2-[(1-methylimidazol-4-yl)amino]pyrimidin-5-yl]phenyl]-N-[6-methyl-5-(trifluoromethyl)-3-pyridyl]acetamide]", "IC50": "0.0001 to 10"},
      {"molecule": "Cn1cnc(Nc2ncc(-c3ccc(CC(=O)Nc4cnc(Cl)c(C(F)(F)F)c4)c(F)c3)cn2)c1", "note": "[Compound P-0100, N-[6-chloro-5-(trifluoromethyl)-3-pyridyl]-2-[2-fluoro-4-[2-[(1-methylimidazol-4-yl)amino]pyrimidin-5-yl]phenyl]acetamide]", "IC50": "0.0001 to 10"},
      {"molecule": "COc1ncc(NC(=O)Cc2ccc(-c3cnc(Nc4cn(C)cn4)nc3)cc2F)cc1C(F)(F)F", "note": "[Compound P-0101, 2-[2-fluoro-4-[2-[(1-methylimidazol-4-yl)amino]pyrimidin-5-yl]phenyl]-N-[6-methoxy-5-(trifluoromethyl)-3-pyridyl]acetamide]", "IC50": "0.0001 to 10"},
      {"molecule": "Cn1cnc(Nc2ncc(-c3ccc(CC(=O)Nc4cc(C(C)(F)F)ccn4)c(F)c3)cn2)c1", "note": "[Compound P-0102, N-[4-(1,1-difluoroethyl)-2-pyridyl]-2-[2-fluoro-4-[2-[(1-methylimidazol-4-yl)amino]pyrimidin-5-yl]phenyl]acetamide]", "IC50": "0.0001 to 10"},
      {"molecule": "Cn1cnc(Nc2ncc(-c3ccc(CC(=O)Nc4cncc(C(C)(F)F)c4)c(F)c3)cn2)c1", "note": "[Compound P-0103, N-[5-(1,1-difluoroethyl)-3-pyridyl]-2-[2-fluoro-4-[2-[(1-methylimidazol-4-yl)amino]pyrimidin-5-yl]phenyl]acetamide]", "IC50": "0.0001 to 10"},
      {"molecule": "Cn1cc(Nc2ncc(-c3ccc(CC(=O)Nc4cnc(F)c(C(C)(F)F)c4)cc3)cn2)cn1", "note": "[Compound P-0104, N-[5-(1,1-difluoroethyl)-6-fluoro-3-pyridyl]-2-[4-[2-[(1-methylpyrazol-4-yl)amino]pyrimidin-5-yl]phenyl]acetamide]", "IC50": "0.0001 to 10"},
      {"molecule": "Cn1cc(Nc2ncc(-c3ccc(CC(=O)Nc4cnc(F)c(C(C)(F)F)c4)c(F)c3)cn2)cn1", "note": "[Compound P-0105, N-[5-(1,1-difluoroethyl)-6-fluoro-3-pyridyl]-2-[2-fluoro-4-[2-[(1-methylpyrazol-4-yl)amino]pyrimidin-5-yl]phenyl]acetamide]", "IC50": "0.0001 to 10"},
      {"molecule": "Cn1cc(Nc2ncc(-c3ccc(CC(=O)Nc4ccc(C(F)(F)F)cn4)c(F)c3)cn2)cn1", "note": "[Compound P-0106, 2-[2-fluoro-4-[2-[(1-methylpyrazol-4-yl)amino]pyrimidin-5-yl]phenyl]-N-[5-(trifluoromethyl)-2-pyridyl]acetamide]", "IC50": "0.0001 to 10"},
      {"molecule": "Cn1cc(Nc2ncc(-c3ccc(CC(=O)Nc4cc(Cl)c(C5CC5)cn4)c(F)c3)cn2)cn1", "note": "[Compound P-0107, N-(4-chloro-5-cyclopropyl-2-pyridyl)-2-[2-fluoro-4-[2-[(1-methylpyrazol-4-yl)amino]pyrimidin-5-yl]phenyl]acetamide]", "IC50": "0.0001 to 10"},
      {"molecule": "Cn1cc(Nc2ncc(-c3ccc(CC(=O)Nc4ccc(C(C)(C)C#N)nc4)c(F)c3)cn2)cn1", "note": "[Compound P-0108, N-[6-(1-cyano-1-methyl-ethyl)-3-pyridyl]-2-[2-fluoro-4-[2-[(1-methylpyrazol-4-yl)amino]pyrimidin-5-yl]phenyl]acetamide]", "IC50": "0.0001 to 10"},
      {"molecule": "Cn1cc(Nc2ncc(-c3ccc(CC(=O)Nc4ccc(C(F)(F)F)cn4)cc3)cn2)cn1", "note": "[Compound P-0109, 2-[4-[2-[(1-methylpyrazol-4-yl)amino]pyrimidin-5-yl]phenyl]-N-[5-(trifluoromethyl)-2-pyridyl]acetamide]", "IC50": "0.0001 to 10"},
      {"molecule": "Cn1cc(Nc2ncc(-c3ccc(CC(=O)Nc4ccc(C(F)(F)F)nc4)c(F)c3)cn2)cn1", "note": "[Compound P-0110, 2-[2-fluoro-4-[2-[(1-methylpyrazol-4-yl)amino]pyrimidin-5-yl]phenyl]-N-[6-(trifluoromethyl)-3-pyridyl]acetamide]", "IC50": "0.0001 to 10"},
      {"molecule": "CCc1cncc(NC(=O)Cc2ccc(-c3cnc(Nc4cnn(C)c4)nc3)cc2F)c1", "note": "[Compound P-0111, N-(5-ethyl-3-pyridyl)-2-[2-fluoro-4-[2-[(1-methylpyrazol-4-yl)amino]pyrimidin-5-yl]phenyl]acetamide]", "IC50": "0.0001 to 10"},
      {"molecule": "Cn1cc(Nc2ncc(-c3ccc(CC(=O)Nc4cccnc4)cc3)cn2)cn1", "note": "[Compound P-0131, 2-[4-[2-[(1-methylpyrazol-4-yl)amino]pyrimidin-5-yl]phenyl]-N-(3-pyridyl)acetamide]", "IC50": "0.0001 to 10"},
      {"molecule": "Cn1cc(Nc2ncc(-c3ccc(CC(=O)NCc4cccnc4)cc3)cn2)cn1", "note": "[Compound P-0132, 2-[4-[2-[(1-methylpyrazol-4-yl)amino]pyrimidin-5-yl]phenyl]-N-(3-pyridylmethyl)acetamide]", "IC50": "0.0001 to 10"},
      {"molecule": "COc1cncc(NC(=O)Cc2ccc(-c3cnc(Nc4cnn(C)c4)nc3)cc2)c1", "note": "[Compound P-0133, N-(5-methoxy-3-pyridyl)-2-[4-[2-[(1-methylpyrazol-4-yl)amino]pyrimidin-5-yl]phenyl]acetamide]", "IC50": "0.0001 to 10"},
      {"molecule": "Cn1cc(Nc2ncc(-c3ccc(CC(=O)Nc4ccnc(C(F)(F)F)c4)cc3)cn2)cn1", "note": "[Compound P-0134, 2-[4-[2-[(1-methylpyrazol-4-yl)amino]pyrimidin-5-yl]phenyl]-N-[2-(trifluoromethyl)-4-pyridyl]acetamide]", "IC50": "0.0001 to 10"},
      {"molecule": "Cn1cc(Nc2ncc(-c3ccc(CC(=O)Nc4cc(C(F)(F)F)ncn4)cc3)cn2)cn1", "note": "[Compound P-0135, 2-[4-[2-[(1-methylpyrazol-4-yl)amino]pyrimidin-5-yl]phenyl]-N-[6-(trifluoromethyl)pyrimidin-4-yl]acetamide]", "IC50": "0.0001 to 10"},
      {"molecule": "Cn1cc(Nc2ncc(-c3ccc(CC(=O)Nc4cncc(C(F)(F)F)c4)cc3)cn2)cn1", "note": "[Compound P-0136, 2-[4-[2-[(1-methylpyrazol-4-yl)amino]pyrimidin-5-yl]phenyl]-N-[5-(trifluoromethyl)-3-pyridyl]acetamide]", "IC50": "0.0001 to 10"},
      {"molecule": "Cn1cc(Nc2ncc(-c3ccc(CC(=O)Nc4ccnc(C(F)(F)F)n4)cc3)cn2)cn1", "note": "[Compound P-0137, 2-[4-[2-[(1-methylpyrazol-4-yl)amino]pyrimidin-5-yl]phenyl]-N-[2-(trifluoromethyl)pyrimidin-4-yl]acetamide]", "IC50": "0.0001 to 10"}
    ]}
  ]
}
